Series [1] is described as follows: Evaluation of total body clearance (CLtot), intravenous administration. The class given is in vivo, Sprague-Dawley (SD). To be noted: rat (SD), intravenous administration 0.5-10 mg/kg; CLtot = dose/AUC. As to the method:
Dose: Intravenous administration with designated doses was selected. (Doses were changed depending on compounds.) • 0.5-10 mg/kg (n=2-3) Preparation of dosing formulation: The dosing solution was prepared by dissolving in an adequate solvent. Administration method: The dosing solution was injected into the tail vein by a syringe with a needle Blood sampling: The blood was collected at the scheduled time and obtained the plasma. Plasma concentrations of the compound were measured by LC/MS/MS. Statistical analysis: Area under the plasma concentration-time curve (AUC) of the compound was calculated by pharmacokinetic analysis software, WinNonlin™ and CLtot was calculated by dividing the dose by AUC.

A further series has as its target HIV-1 PR (Human immunodeficiency virus type 1 group M subtype B, UniProt P04585). Briefly: HIV-protease inhibitory activity assay (FRET peptide substrate). To be noted: Test Example 1. Type of series: biochemical. A digest of the protocol: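 Fluorescence recovery at ex 485/em 535 nm reports cleavage of a quenched FRET peptide (2 μmol/L final) by 0.83 ng enzyme over 60 minutes at room temperature. Buffer was NaAc pH 4.8 with NaCl, EDTA, DTT and Tween 20. IC50 values came from four-parameter logistic regression of % inhibition.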

Usually IC50 stands for the concentration that gives 50% inhibition. Read a low IC50 as higher potency.

On to `COc1ccc(S(=O)(=O)N(CC(C)C)CC(O)C(Cc2ccc(N(C)Cc3occc3-c3sc4c(c3C(=O)O)CC(C)(C)CC4)cc2)NC(=O)OC2COC3(C)OCCC23)cc1` (stereo not shown) [Compound I-492], for which the rat_CLt in series [1] was 17.3 mL/min/kg. Besides, the half-inhibitory concentration (IC50) against HIV-1 PR was found to be 1.84 nM.

`CC(C)CN(CC(O)C(Cc1ccc(NCc2ccccc2-c2sc3c(c2C(=O)O)CC(C)(C)CC3)cc1)NC(=O)OC1COC2(C)OCCC12)S(=O)(=O)c1ccc(OCF)cc1` (stereo not shown) [Compound I-507] returned a rat_CLt in series [1] of 1.61 mL/min/kg. The compound further displayed an IC50 against HIV-1 PR of 1.85 nM.

`COc1ccc(S(=O)(=O)N(CC(C)C)CC(O)C(Cc2ccc(N3CCC(Oc4cc5ccccc5cc4-c4sc5c(c4C(=O)O)CC(C)(C)CC5)C3)cc2)NC(=O)OC2COC3(C)OCCC23)cc1` (stereo not shown) [Compound I-509] returned a rat_CLt in series [1] of 0.377 mL/min/kg. The compound also registered an IC50 on HIV-1 PR of 1.96 nM.

Compound `COc1ccc(S(=O)(=O)N(CC(C)C)CC(O)C(Cc2ccc(N(C)Cc3cccc(-c4sc5c(c4C(=O)O)CC(C)(C)CC5)c3C)cc2)NC(=O)OC2COC3(C)OCCC23)cc1` (stereo not shown) [Compound I-510] gave a rat_CLt in series [1] of 1.08 mL/min/kg. On HIV-1 PR, this compound had an IC50 of 10.6 nM.

As for `CC1(C)CCc2sc(-c3ccccc3CNc3ccc(CC(NC(=O)OC4COC5(C)OCCC45)C(O)CN(CC4CCCC4)S(=O)(=O)c4ccc5ncsc5c4)cc3)c(C(=O)O)c2C1` (stereo not shown) [Compound I-513], the rat_CLt in series [1] turned out to be 3.23 mL/min/kg. On HIV-1 PR, the IC50 turned out to be 1.76 nM.

In turn, `COc1ccc(S(=O)(=O)N(CC(C)C)CC(O)C(Cc2ccc(N3CCC(Oc4ccc(C(F)(F)F)cc4-c4sc5c(c4C(=O)O)CC(C)(C)CC5)C3)cc2)NC(=O)OC2COC3(C)OCCC23)cc1` (stereo not shown) [Compound I-514] came in with a rat_CLt in series [1] of 3.01 mL/min/kg. The IC50 against HIV-1 PR came out at 6.21 nM.

Regarding `COc1ccc(S(=O)(=O)N(CC(C)C)CC(O)C(Cc2ccc(N(C)CCOc3ccc(-c4sc5c(c4C(=O)O)CC(C)(C)CC5)c(C)c3)cc2)NC(=O)OC2COC3(C)OCCC23)cc1` (stereo not shown) [Compound I-519], in series [1], the rat_CLt was 0.429 mL/min/kg. The compound also had a 50% inhibitory concentration (IC50) on HIV-1 PR of 8.93 nM.

In series [1], `COc1ccc(S(=O)(=O)N(CC(C)C)CC(O)C(Cc2ccc(N3CCC(c4ccccc4-c4sc5c(c4C(=O)O)CC(C)(C)CC5)C3)cc2)NC(=O)OC2COC3(C)OCCC23)cc1` (stereo not shown) [Compound I-522] had a rat_CLt of 0.144 mL/min/kg. The IC50 against HIV-1 PR was 13.6 nM.

`COc1ccc(S(=O)(=O)N(CC(C)C)CC(O)C(Cc2ccc(NCC3=C(c4sc5c(c4C(=O)O)CC(C)(C)CC5)CCCCC3)cc2)NC(=O)OC2COC3(C)OCCC23)cc1` (stereo not shown) [Compound I-524] had a rat_CLt in series [1] of 0.23 mL/min/kg. Also, on HIV-1 PR, 5.03 nM corresponded to half-maximal inhibition (IC50).

Consider `COc1ccc(S(=O)(=O)N(CC(C)C)CC(O)C(Cc2ccc(N(C)CC3=C(c4sc5c(c4C(=O)O)CC(C)(C)CC5)CCCCC3)cc2)NC(=O)OC2COC3(C)OCCC23)cc1` (stereo not shown) [Compound I-525], for which the rat_CLt in series [1] is listed as 0.127 mL/min/kg. On HIV-1 PR, this compound gave an IC50 of 5.75 nM.

For the compound `COc1ccc(S(=O)(=O)N(CC(C)C)CC(O)C(Cc2ccc(NCc3ccc(C(F)(F)F)cc3-c3sc4c(c3C(=O)O)CC(C)(C)CC4)cc2)NC(=O)OC2COC3(C)OCCC23)cc1` (stereo not shown) [Compound I-526], the rat_CLt in series [1] was determined as 0.632 mL/min/kg. On HIV-1 PR, this compound returned an IC50 of 6.47 nM.

`COc1ccc(S(=O)(=O)N(CC(C)C)CC(O)C(Cc2ccc(NCc3cocc3-c3sc4c(c3C(=O)O)CC(C)(C)CC4)cc2)NC(=O)OC2COC3(C)OCCC23)cc1` (stereo not shown) [Compound I-528]: the rat_CLt in series [1] is listed as 4.05 mL/min/kg. Moreover, on HIV-1 PR, the midpoint of inhibition, the IC50, lay at 2.36 nM.

The compound `COc1ccc(S(=O)(=O)N(CC(C)C)CC(O)C(Cc2ccc(NCc3ccc(-c4ccccc4-c4sc5c(c4C(=O)O)CC(C)(C)CC5)cc3)cc2)NC(=O)OC2COC3(C)OCCC23)cc1` (stereo not shown) [Compound I-530] had a rat_CLt in series [1] of 1.57 mL/min/kg. This compound also came in with an IC50 against HIV-1 PR of 8.31 nM.

`COc1ccc(S(=O)(=O)N(CC(C)C)CC(O)C(Cc2ccc(NCc3c(-c4sc5c(c4C(=O)O)CC(C)(C)CC5)ccc4ccccc34)cc2)NC(=O)OC2COC3(C)OCCC23)cc1` (stereo not shown) [Compound I-531] returned a rat_CLt in series [1] of 0.0543 mL/min/kg. Moreover, on HIV-1 PR, half-maximal inhibition (IC50) required 6.98 nM.

`COc1ccc(S(=O)(=O)N(CC(C)C)CC(O)C(Cc2ccc(NCc3ccc(C)c(-c4sc5c(c4C(=O)O)CC(C)(C)CC5)c3)cc2)NC(=O)OC2COC3(C)OCCC23)cc1` (stereo not shown) [Compound I-532] had a rat_CLt in series [1] of 0.551 mL/min/kg. Also, the IC50 against HIV-1 PR stood at 4.14 nM.

In series [1], `COc1ccc(S(=O)(=O)N(CC(C)C)CC(O)C(Cc2ccc(N(C)Cc3cccc(C(F)(F)F)c3-c3sc4c(c3C(=O)O)CC(C)(C)CC4)cc2)NC(=O)OC2COC3(C)OCCC23)cc1` (stereo not shown) [Compound I-537] displayed a rat_CLt of 0.328 mL/min/kg. The same compound had an IC50 against HIV-1 PR of 5.5 nM.

`COc1ccc(S(=O)(=O)N(CC(C)C)CC(O)C(Cc2ccc(N(C)Cc3cc(N(C)C)ccc3-c3sc4c(c3C(=O)O)CC(C)(C)CC4)cc2)NC(=O)OC2COC3(C)OCCC23)cc1` (stereo not shown) [Compound I-538] displayed a rat_CLt in series [1] of 0.598 mL/min/kg. This compound also returned an IC50 against HIV-1 PR of 2.86 nM.

In series [1], `COc1ccc(S(=O)(=O)N(CC(C)C)CC(O)C(Cc2ccc(N(C)Cc3cc(N4CCCC4)ccc3-c3sc4c(c3C(=O)O)CC(C)(C)CC4)cc2)NC(=O)OC2COC3(C)OCCC23)cc1` (stereo not shown) [Compound I-539] displayed a rat_CLt of 0.156 mL/min/kg. Also, at HIV-1 PR, the IC50 was 2.91 nM.

In turn, `COc1ccc(S(=O)(=O)N(CC(C)C)CC(O)C(Cc2ccc(N(C)Cc3ccc(C(F)(F)F)cc3-c3sc4c(c3C(=O)O)CC(C)(C)CC4)cc2)NC(=O)OC2COC3(C)OCCC23)cc1` (stereo not shown) [Compound I-540] came in with a rat_CLt in series [1] of 1.5 mL/min/kg. Moreover, the IC50 against HIV-1 PR stood at 27.8 nM.

As for `COc1ccc(S(=O)(=O)N(CC(C)C)CC(O)C(Cc2ccc(NCc3cc(OC)c(OC)cc3C(=O)Nc3sc4c(c3C(=O)O)CC(C)(C)CC4)cc2)NC(=O)OC2COC3(C)OCCC23)cc1` (stereo not shown) [Compound I-541], the rat_CLt in series [1] worked out at 0.195 mL/min/kg. For the same compound, the IC50 on HIV-1 PR stood at 2.34 nM.

With `COc1ccc(S(=O)(=O)N(CC(C)C)CC(O)C(Cc2ccc(NCc3cc(C)ccc3-c3sc4c(c3C(=O)O)CC(C)(C)CC4)cc2)NC(=O)OC2COC3(C)OCCC23)cc1` (stereo not shown) [Compound I-545], the rat_CLt in series [1] is 1.15 mL/min/kg. In addition, half-maximal inhibition against HIV-1 PR (IC50) was put at 1.85 nM.

Take `COc1ccc(S(=O)(=O)N(CC(C)C)CC(O)C(Cc2ccc(NCc3cc(-c4sc5c(c4C(=O)O)CC(C)(C)CC5)ccc3C)cc2)NC(=O)OC2COC3(C)OCCC23)cc1` (stereo not shown) [Compound I-550]: the rat_CLt in series [1] came out at 5.29 mL/min/kg. Moreover, the IC50 against HIV-1 PR was found to be 1.75 nM.

Take `COc1ccc(S(=O)(=O)N(CC(C)C)CC(O)C(Cc2ccc(NCc3cc4c(cc3-c3sc5c(c3C(=O)O)CC(C)(C)CC5)OCO4)cc2)NC(=O)OC2COC3(C)OCCC23)cc1` (stereo not shown) [Compound I-552]: the rat_CLt in series [1] was found to be 0.985 mL/min/kg. This compound came in with an IC50 on HIV-1 PR of 1.41 nM.

Consider `COc1ccc(S(=O)(=O)N(CC(C)C)CC(O)C(Cc2ccc(NCc3ccc(-c4sc5c(c4C(=O)O)CC(C)(C)CC5)cc3O)cc2)NC(=O)OC2COC3(C)OCCC23)cc1` (stereo not shown) [Compound I-555], for which, in series [1], the rat_CLt was found to be 5.98 mL/min/kg. On HIV-1 PR, 1.68 nM corresponded to half-maximal inhibition (IC50).

Compound `COc1ccc(S(=O)(=O)N(CC(C)C)CC(O)C(Cc2ccc(NCc3cc(OC)c(OC)cc3-c3sc4c(c3C(=O)O)CC(C)(C)CC4)cc2)NC(=O)OC2COC3(C)OCCC23)cc1` (stereo not shown) [Compound I-560] had a rat_CLt in series [1] of 4.5 mL/min/kg. Moreover, it took 1.65 nM to reach half-maximal inhibition at HIV-1 PR (IC50).

The compound `COc1ccc(S(=O)(=O)N(CC(C)C)CC(O)C(Cc2ccc(NCc3cc(O)ccc3-c3sc4c(c3C(=O)O)CC(C)(C)CC4)cc2)NC(=O)OC2COC3(C)OCCC23)cc1` (stereo not shown) [Compound I-561] displayed a rat_CLt in series [1] of 4.48 mL/min/kg. This compound showed an IC50 against HIV-1 PR of 1.35 nM.

Take `COc1ccc(S(=O)(=O)N(CC(C)C)CC(O)C(Cc2ccc(NCc3ccc(Cl)cc3-c3sc4c(c3C(=O)O)CC(C)(C)CC4)cc2)NC(=O)OC2COC3(C)OCCC23)cc1` (stereo not shown) [Compound I-563]: in series [1], the rat_CLt is recorded as 0.883 mL/min/kg. On HIV-1 PR, this compound registered an IC50 of 2.13 nM.

The compound `COc1ccc(S(=O)(=O)N(CC(C)C)CC(O)C(Cc2ccc(NCc3cc(OC)ccc3-c3sc4c(c3C(=O)O)CC(C)(C)CC4)cc2)NC(=O)OC2COC3(C)OCCC23)cc1` (stereo not shown) [Compound I-566] yielded a rat_CLt in series [1] of 0.727 mL/min/kg. On HIV-1 PR, this compound came in with an IC50 of 1.61 nM.

As to `COc1ccc(S(=O)(=O)N(CC(C)C)CC(O)C(Cc2ccc(NCc3cc([N+](=O)[O-])ccc3-c3sc4c(c3C(=O)O)CC(C)(C)CC4)cc2)NC(=O)OC2COC3(C)OCCC23)cc1` (stereo not shown) [Compound I-567], the rat_CLt in series [1] came out at 2.81 mL/min/kg. Besides, the IC50 against HIV-1 PR is 3.12 nM.

On to `COc1ccc(S(=O)(=O)N(CC(C)C)CC(O)C(Cc2ccc(NCc3ccccc3NC(=O)c3sc4c(c3C(=O)O)CC(C)(C)CC4)cc2)NC(=O)OC2COC3(C)OCCC23)cc1` (stereo not shown) [Compound I-574], for which, in series [1], the rat_CLt came to 1.01 mL/min/kg. Besides, on HIV-1 PR, the midpoint of inhibition, the IC50, lay at 2.93 nM.

With `COc1ccc(S(=O)(=O)N(CC(C)C)CC(O)C(Cc2ccc(N3CC(Oc4ccccc4C(=O)Nc4sc5c(c4C(=O)O)CC(C)(C)CC5)C3)cc2)NC(=O)OC2COC3(C)OCCC23)cc1` (stereo not shown) [Compound I-575], the rat_CLt in series [1] was 0.267 mL/min/kg. The compound also showed an IC50 against HIV-1 PR of 8.32 nM.

In the case of `COc1ccc(S(=O)(=O)N(CC(C)C)CC(O)C(Cc2ccc(N3CCC(Oc4ccccc4-c4sc5c(c4C(=O)O)CC(C)(C)CC5)CC3)cc2)NC(=O)OC2COC3(C)OCCC23)cc1` (stereo not shown) [Compound I-578], in series [1], the rat_CLt is 3.16 mL/min/kg. At HIV-1 PR, this compound came in with an IC50 of 2.39 nM.
